Values of other authors in patent US5723589A, “Carbohydrate conjugated bio-active compounds” (ICN Pharmaceuticals, priority 1995, dated 1998).

Columns and labels:
[1] = test system: GLUT-1 in cancer cells; details: inhibition of GLUT-1 functioning by binding; cited from earlier work
[2] = test system: blood brain barrier; details: concentrated solutions infused into the carotid arteries; cited from earlier work
[3] = test system: GLUT-1 in normal 3T3 fibroblasts; details: Endocrinology 1990, 126, 2778; cited from earlier work

## Cc1ccc(C(=O)Nc2ccc(S(=O)(=O)O)c3cc(S(=O)(=O)O)cc(S(=O)(=O)O)c23)cc1NC(=O)c1cccc(NC(=O)Nc2cccc(C(=O)Nc3cc(C(=O)Nc4ccc(S(=O)(=O)O)c5cc(S(=O)(=O)O)cc(S(=O)(=O)O)c45)ccc3C)c2)c1 [suramin]
[1]
  glucose uptake and growth rate of the treated cells: significantly limits glucose uptake and the growth rate of the treated cells

## OC[C@@H](O)[C@@H](O)[C@H](O)[C@H](O)CO [mannitol]
[2]
  disruption of the blood brain barrier: disrupt the blood brain barrier long enough to allow methotrexate and other potent chemotherapeutic agents to penetrate brain tumors

## Sodium vanadate
[3]
  GLUT-1 expression: able to induce GLUT-1 expression
  extension of the half-life of GLUT-1 mRNA: 2-3 times
